Experimental findings from PMC4774501 (Biomolecules & Therapeutics, 2016) are described below.

SMILES strings stand for the structures.

The target of this experiment is T1, vitamin D receptor (VDR) (Homo sapiens, UniProt P11473).
T1 sequence (P11473 118-427): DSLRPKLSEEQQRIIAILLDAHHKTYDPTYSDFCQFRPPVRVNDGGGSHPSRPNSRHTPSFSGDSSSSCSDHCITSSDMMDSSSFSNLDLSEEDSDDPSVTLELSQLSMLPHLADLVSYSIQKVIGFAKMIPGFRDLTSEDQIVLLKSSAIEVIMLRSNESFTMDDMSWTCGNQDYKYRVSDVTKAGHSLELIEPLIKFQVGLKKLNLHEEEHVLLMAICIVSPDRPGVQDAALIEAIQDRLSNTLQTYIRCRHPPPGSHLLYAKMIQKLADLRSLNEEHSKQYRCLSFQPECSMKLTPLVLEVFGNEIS
As to the kind of experiment: intrinsic tryptophan fluorescence quenching titration. It is filed as binding.

In the case of `O=c1c(O)c(-c2ccc(O)c(O)c2)oc2cc(O)cc(O)c12` [quercetin], the equilibrium dissociation constant (Kd) came to 21.1 ± 4.31 µM.
